The text below walks through data of US20070218462A1, “Method of Predicting a Benefit of Antioxidant Therapy for Prevention of Cardiovascular Disease in Hiperglycemic Patients” (priority 2003, published 2007).

Each structure is given as a SMILES string. “Also recorded” adds a separate entry of the source.

Test [1] concerns unselected samples or Diabetic patients. Briefly: CVD outcomes and Vitamin C supplementation (data not shown). In kind it is in vivo, human.
Test [2] deals with patients at high risk of cardiovascular events. The note with it: daily administration of 400 IU for 4.5 years; original HOPE study report; cited from earlier work.
The test system is the same in test [3]. Briefly: HOPE study: relative risk of primary CV outcomes with vitamin E or ramipril, by haptoglobin phenotype. In kind it is in vivo, human. The text has this:
HOPE study and patient characteristics: The Heart Outcomes Prevention Evaluation (HOPE) study was designed to test the hypotheses that two preventive intervention strategies, namely angiotensin-converting enzyme (ACE) inhibition or vitamin E, would improve morbidity and mortality in patients at high risk of cardiovascular events compared with placebo. Patients were included in the study who were considered to be at high risk of future fatal or non-fatal cardiovascular events, by virtue of their age (>55 years), existing or previous cardiovascular disease, or diabetes. Diabetics had at least one other risk factor, either known vascular disease or other factors such as cigarette smoking, high cholesterol or hypertension. Ramipril or placebo was added to concomitant medication, which included, in a substantial proportion of patients, antihypertensive drugs (excluding ACE-I), lipid-lowering agents or aspirin. The HOPE study design and protocols have been previously described in detail (see, for example, The Heart Outcomes Prevention Evaluation Study Investigators NE J Med, 2000; 342:154-60 and […] Angioten Aldost Sys 2000;1:18-20). Briefly, the study population consisted over 9,451 patients at high risk of CVD (3,654 DM). […] Patients were followed for a mean of 4.5 years. The primary study outcome was the composite of non-fatal MI, stroke or cardiovascular death. For samples from the HOPE Study, haptoglobin phenotyping was performed from 10 ul of plasma by polyacrylamide gel electrophoresis according to established methods (Hochberg I et al Atherosclerosis 2002;161:441-446). A signature banding pattern is obtained from individuals who are homozygous for the 1 allele (Hp 1-1), homozygous for the 2 allele (Hp 2-2) or who are heterozygous at the haptoglobin locus (Hp 2-1). We have established 100% concordance between the haptoglobin phenotype as determined from plasma and the haptoglobin genotype as determined from genomic DNA by the polymerase chain reaction (Koch W, et al Clin Chem 2002; 277:13635-40). An unambiguous haptoglobin phenotype was obtained on greater than 99.6% of all samples assayed. Haptoglobin phenotyping was performed with no knowledge of the patients clinical or treatment status. All analyses of the HOPE Study data were carried out using SAS 6.02. Baseline characteristics of patients according to haptoglobin were compared by t tests or χ^2 tests as appropriate. […] Patient characteristics of HOPE samples undergoing haptoglobin phenotyping: Haptoglobin phenotype was obtained on 3176 patients (1078 diabetics) from the origianl HOPE cohort for whom plasma was originally archived. These patients represented a randomly selected consecutive series of cohort according to CVD risk factors and treatment regimen is shown in Table 4 below.

[4] abbreviates: All patients, Hp 1-1, with vitamin E vs without vitamin E.
[5] abbreviates: All patients, Hp 2-1, with vitamin E vs without vitamin E.
[6] abbreviates: All patients, Hp 2-2, with vitamin E vs without vitamin E.
Setting [7] is: DM Patients only, Hp 1-1, with vitamin E vs without vitamin E.
Where [8] appears, read: DM Patients only, Hp 2-1, with vitamin E vs without vitamin E.
[9] abbreviates: DM Patients only, Hp 2-2, with vitamin E vs without vitamin E.
The mark [10] stands for this setting: entire sample, regardless of haptoglobin type.
The mark [11] stands for this setting: All patients, Hp 1-1, with ramipril vs without ramipril.
Setting [12] is: All patients, Hp 2-1, with ramipril vs without ramipril.
The mark [13] stands for this setting: All patients, Hp 2-2, with ramipril vs without ramipril.
[14] abbreviates: DM Patients only, Hp 1-1, with ramipril vs without ramipril.
Setting [15] is: DM Patients only, Hp 2-1, with ramipril vs without ramipril.
Where [16] appears, read: DM Patients only, Hp 2-2, with ramipril vs without ramipril.

Take `O=C1O[C@H]([C@@H](O)CO)C(O)=C1O` [Vitamin C]: in test [1], the “correlation between CVD outcomes and Vitamin C supplementation” value is listed as “no correlation could be found”.
With `CC(=O)Oc1c(C)c(C)c2c(c1C)CC[C@@](C)(CCC[C@H](C)CCC[C@H](C)CCCC(C)C)O2` [Vitamin E, RRR-a-tocophorol acetate], the “clinical benefit on cardiovascular (CV) outcomes” value in test [2] was “failed to demonstrate any clinical benefit”. Further, the “Relative Risk Ratio, CV death (95% CI)” value in test [3] (setting [4]) is on record as 1.10 (0.56-2.12); in test [3] (setting [5]), 1.07 (0.69-1.64); in test [3] (setting [6]), 0.75 (0.48-1.16); in test [3] (setting [7]), 0.64 (0.21-1.92); in test [3] (setting [8]), 1.0 (0.53-1.93); in test [3] (setting [9]) it was 0.45 (0.23-0.90). Also, the “Relative Risk Ratio, MI (95% CI)” value was 0.79 (0.47-1.33) in test [3] (setting [4]); 1.02 (0.75-1.38) in test [3] (setting [5]); 0.94 (0.68-1.30) in test [3] (setting [6]); 0.83 (0.33-2.06) in test [3] (setting [7]); 0.99 (0.45-2.18) in test [3] (setting [8]); 0.57 (0.33-0.97) in test [3] (setting [9]). The “Relative Risk Ratio, Primary (95% CI)” value in test [3] (setting [4]) is 0.97 (0.63-1.50); in test [3] (setting [5]), 0.96 (0.74-1.25); in test [3] (setting [6]), 0.92 (0.69-1.22); in test [3] (setting [7]), 0.84 (0.40-1.79); in test [3] (setting [8]), 1.08 (0.72-1.61); in test [3] (setting [9]), 0.70 (0.45-1.10). Also, the “Relative Risk Ratio, Stroke (95% CI)” value is reported as 1.50 (0.56-4.04) in test [3] (setting [4]); 0.92 (0.53-1.60) in test [3] (setting [5]); 0.85 (0.46-1.57) in test [3] (setting [6]); 2.24 (0.41-12.4) in test [3] (setting [7]); 0.99 (0.45-2.18) in test [3] (setting [8]); 1.15 (0.47-2.82) in test [3] (setting [9]). For the same compound, in test [3] (DM patients, other haptoglobin phenotypes (Hp 1-1 and Hp 2-1)), the “benefit of vitamin E therapy for any of the primary CV outcomes” value is “no significant benefit”. The “benefit of vitamin E supplementation for any of the primary CV outcomes” value in test [3] (setting [10]) is listed as “no significant benefit”. The “benefit of vitamin E supplementation” value in test [3] (unselected DM group) was “no significant benefit; also recorded: no apparent benefit”.
As for `CCOC(=O)[C@H](CCc1ccccc1)N[C@@H](C)C(=O)N1[C@H](C(=O)O)C[C@@H]2CCC[C@@H]21` [Ramipril, ramipril], the “Relative Risk Ratio, CV death (95% CI)” value in test [3] (setting [11]) is reported as 0.58 (0.29-1.18); in test [3] (setting [12]), 1.02 (0.66-1.58); in test [3] (setting [13]), 0.87 (0.55-1.37); in test [3] (setting [14]), 0.42 (0.13-1.36); in test [3] (setting [15]), 0.97 (0.50-1.88); in test [3] (setting [16]) it was 0.56 (0.28-1.12). The “Relative Risk Ratio, MI (95% CI)” value in test [3] (setting [11]) is 0.61 (0.35-1.06); in test [3] (setting [12]) it was 0.88 (0.64-1.20); in test [3] (setting [13]), 0.83 (0.59-1.17); in test [3] (setting [14]), 0.53 (0.19-1.46); in test [3] (setting [15]), 0.99 (0.81-2.13); in test [3] (setting [16]) it was 0.57 (0.38-1.12). Further, the “Relative Risk Ratio, Primary (95% CI)” value in test [3] (setting [11]) was 0.74 (0.47-1.17); in test [3] (setting [12]), 0.81 (0.62-1.07); in test [3] (setting [13]), 0.76 (0.57-1.02); in test [3] (setting [14]) it was 0.78 (0.35-1.75); in test [3] (setting [15]) it was 0.97 (0.72-1.61); in test [3] (setting [16]), 0.57 (0.36-0.90). For the same compound, the “Relative Risk Ratio, Stroke (95% CI)” value in test [3] (setting [11]) is on record as 0.91 (0.33-2.51); in test [3] (setting [12]) it was 0.68 (0.38-1.21); in test [3] (setting [13]) it was 0.53 (0.27-1.04); in test [3] (setting [14]) it was 1.29 (0.21-7.82); in test [3] (setting [15]), 0.58 (0.25-1.34); in test [3] (setting [16]), 0.42 (0.16-1.09). For the same compound, in test [3] (setting [10]), the “benefit of ramipril supplementation for any of the primary CV outcomes” value was “no significant benefit”. Further, the “benefit to ramipril for any of the primary CV outcomes” value in test [3] (other haptoglobin phenotypes (Hp 1-1, Hp 1-2)) is reported as “no benefit”. In addition, the “benefit of ramipril supplementation” value in test [3] (unselected DM group) is reported as “no significant benefit”.
